Assay results taken from PMC4620497 (Scientific Reports, 2015).

Legend:
AAK1 = biological target: T1, AAK1 (Homo sapiens, UniProt Q2M2I8); assay: KINOMEscan panel screen; format: binding; conditions: read-out: Percent Control(%)
T1 construct: purchased DiscoveRx KINOMEscan (Ambit Biosciences)

ABL1-phosphorylated = biological target: T2, ABL1-phosphorylated (Homo sapiens, UniProt P00519); assay: KINOMEscan panel screen; format: binding; conditions: read-out: Percent Control(%)
T2 construct: purchased DiscoveRx KINOMEscan (Ambit Biosciences)

BLK = biological target: T3, BLK (Homo sapiens, UniProt P51451); assay: KINOMEscan panel screen; format: binding; conditions: read-out: Percent Control(%)
T3 construct: purchased DiscoveRx KINOMEscan (Ambit Biosciences)

CLK2 = biological target: T4, CLK2 (Homo sapiens, UniProt P49760); assay: KINOMEscan panel screen; format: binding; conditions: read-out: Percent Control(%)
T4 construct: purchased DiscoveRx KINOMEscan (Ambit Biosciences)

CSNK1A1L = biological target: T5, CSNK1A1L (Homo sapiens, UniProt Q8N752); assay: KINOMEscan panel screen; format: binding; conditions: read-out: Percent Control(%)
T5 construct: purchased DiscoveRx KINOMEscan (Ambit Biosciences)

CSNK1G1 = biological target: T6, CSNK1G1 (Homo sapiens, UniProt Q9HCP0); assay: KINOMEscan panel screen; format: binding; conditions: read-out: Percent Control(%)
T6 construct: purchased DiscoveRx KINOMEscan (Ambit Biosciences)

CSNK2A1 = biological target: T7, CSNK2A1 (Homo sapiens, UniProt P68400); assay: KINOMEscan panel screen; format: binding; conditions: read-out: Percent Control(%)
T7 construct: purchased DiscoveRx KINOMEscan (Ambit Biosciences)

DYRK1B = biological target: T8, DYRK1B (Homo sapiens, UniProt Q9Y463); assay: KINOMEscan panel screen; format: binding; conditions: read-out: Percent Control(%)
T8 construct: purchased DiscoveRx KINOMEscan (Ambit Biosciences)

EPHA4 = biological target: T9, EPHA4 (Homo sapiens, UniProt P54764); assay: KINOMEscan panel screen; format: binding; conditions: read-out: Percent Control(%)
T9 construct: purchased DiscoveRx KINOMEscan (Ambit Biosciences)

EPHB6 = biological target: T10, EPHB6 (Homo sapiens, UniProt O15197); assay: KINOMEscan panel screen; format: binding; conditions: read-out: Percent Control(%)
T10 construct: purchased DiscoveRx KINOMEscan (Ambit Biosciences)

GCN2(Kin.Dom.2,S808G) = biological target: T11, GCN2(Kin.Dom.2,S808G) (Homo sapiens, UniProt Q9P2K8, S808G); assay: KINOMEscan panel screen; format: binding; conditions: read-out: Percent Control(%)
T11 construct: GCN2(Kin.Dom.2,S808G); purchased DiscoveRx KINOMEscan (Ambit Biosciences)

GSK3A = biological target: T12, GSK3A (Homo sapiens, UniProt P49840); assay: KINOMEscan panel screen; format: binding; conditions: read-out: Percent Control(%)
T12 construct: purchased DiscoveRx KINOMEscan (Ambit Biosciences)

ITK = biological target: T13, ITK (Homo sapiens, UniProt Q08881); assay: KINOMEscan panel screen; format: binding; conditions: read-out: Percent Control(%)
T13 construct: purchased DiscoveRx KINOMEscan (Ambit Biosciences)

[1] = biological target: T14, JAK1(JH1domain-catalytic) (Homo sapiens, UniProt P23458); assay: KINOMEscan panel screen; format: binding; conditions: read-out: Percent Control(%)
T14 construct: JAK1(JH1domain-catalytic); purchased DiscoveRx KINOMEscan (Ambit Biosciences)

LIMK1 = biological target: T15, LIMK1 (Homo sapiens, UniProt P53667); assay: KINOMEscan panel screen; format: binding; conditions: read-out: Percent Control(%)
T15 construct: purchased DiscoveRx KINOMEscan (Ambit Biosciences)

LIMK2 = biological target: T16, LIMK2 (Homo sapiens, UniProt P53671); assay: KINOMEscan panel screen; format: binding; conditions: read-out: Percent Control(%)
T16 construct: purchased DiscoveRx KINOMEscan (Ambit Biosciences)

MET = biological target: T17, MET (Homo sapiens, UniProt P08581); assay: KINOMEscan panel screen; format: binding; conditions: read-out: Percent Control(%)
T17 construct: purchased DiscoveRx KINOMEscan (Ambit Biosciences)

MLCK = biological target: T18, MLCK (Homo sapiens, UniProt Q32MK0); assay: KINOMEscan panel screen; format: binding; conditions: read-out: Percent Control(%)
T18 construct: purchased DiscoveRx KINOMEscan (Ambit Biosciences)

MST3 = biological target: T19, MST3 (Homo sapiens, UniProt Q9Y6E0); assay: KINOMEscan panel screen; format: binding; conditions: read-out: Percent Control(%)
T19 construct: purchased DiscoveRx KINOMEscan (Ambit Biosciences)

NDR2 = biological target: T20, NDR2 (Homo sapiens, UniProt Q9Y2H1); assay: KINOMEscan panel screen; format: binding; conditions: read-out: Percent Control(%)
T20 construct: purchased DiscoveRx KINOMEscan (Ambit Biosciences)

NEK10 = biological target: T21, NEK10 (Homo sapiens, UniProt Q6ZWH5); assay: KINOMEscan panel screen; format: binding; conditions: read-out: Percent Control(%)
T21 construct: purchased DiscoveRx KINOMEscan (Ambit Biosciences)

NEK3 = biological target: T22, NEK3 (Homo sapiens, UniProt P51956); assay: KINOMEscan panel screen; format: binding; conditions: read-out: Percent Control(%)
T22 construct: purchased DiscoveRx KINOMEscan (Ambit Biosciences)

PAK2 = biological target: T23, PAK2 (Homo sapiens, UniProt Q13177); assay: KINOMEscan panel screen; format: binding; conditions: read-out: Percent Control(%)
T23 construct: purchased DiscoveRx KINOMEscan (Ambit Biosciences)

PDGFRB = biological target: T24, PDGFRB (Homo sapiens, UniProt P09619); assay: KINOMEscan panel screen; format: binding; conditions: read-out: Percent Control(%)
T24 construct: purchased DiscoveRx KINOMEscan (Ambit Biosciences)

PIK3CA(E545A) = biological target: T25, PIK3CA(E545A) (Homo sapiens, UniProt P42336, E545A); assay: KINOMEscan panel screen; format: binding; conditions: read-out: Percent Control(%)
T25 construct: purchased DiscoveRx KINOMEscan (Ambit Biosciences)

PKAC-alpha = biological target: T26, PKAC-alpha (Homo sapiens, UniProt P17612); assay: KINOMEscan panel screen; format: binding; conditions: read-out: Percent Control(%)
T26 construct: purchased DiscoveRx KINOMEscan (Ambit Biosciences)

RIOK1 = biological target: T27, RIOK1 (Homo sapiens, UniProt Q9BRS2); assay: KINOMEscan panel screen; format: binding; conditions: read-out: Percent Control(%)
T27 construct: purchased DiscoveRx KINOMEscan (Ambit Biosciences)

RIPK5 = biological target: T28, RIPK5 (Homo sapiens, UniProt Q6XUX3); assay: KINOMEscan panel screen; format: binding; conditions: read-out: Percent Control(%)
T28 construct: purchased DiscoveRx KINOMEscan (Ambit Biosciences)

[2] = biological target: T29, RSK3(Kin.Dom.2-C-terminal) (Homo sapiens, UniProt Q15349); assay: KINOMEscan panel screen; format: binding; conditions: read-out: Percent Control(%)
T29 construct: RSK3(Kin.Dom.2-C-terminal); purchased DiscoveRx KINOMEscan (Ambit Biosciences)

SGK = biological target: T30, SGK (Homo sapiens, UniProt O00141); assay: KINOMEscan panel screen; format: binding; conditions: read-out: Percent Control(%)
T30 construct: purchased DiscoveRx KINOMEscan (Ambit Biosciences)

SgK110 = biological target: T31, SgK110 (Homo sapiens, UniProt P0C264); assay: KINOMEscan panel screen; format: binding; conditions: read-out: Percent Control(%)
T31 construct: purchased DiscoveRx KINOMEscan (Ambit Biosciences)

TAK1 = biological target: T32, TAK1 (Homo sapiens, UniProt O43318); assay: KINOMEscan panel screen; format: binding; conditions: read-out: Percent Control(%)
T32 construct: purchased DiscoveRx KINOMEscan (Ambit Biosciences)

TXK = biological target: T33, TXK (Homo sapiens, UniProt P42681); assay: KINOMEscan panel screen; format: binding; conditions: read-out: Percent Control(%)
T33 construct: purchased DiscoveRx KINOMEscan (Ambit Biosciences)

ULK1 = biological target: T34, ULK1 (Homo sapiens, UniProt O75385); assay: KINOMEscan panel screen; format: binding; conditions: read-out: Percent Control(%)
T34 construct: purchased DiscoveRx KINOMEscan (Ambit Biosciences)

WEE1 = biological target: T35, WEE1 (Homo sapiens, UniProt P30291); assay: KINOMEscan panel screen; format: binding; conditions: read-out: Percent Control(%)
T35 construct: purchased DiscoveRx KINOMEscan (Ambit Biosciences)

ZAK = biological target: T36, ZAK (Homo sapiens, UniProt Q9NYL2); assay: KINOMEscan panel screen; format: binding; conditions: read-out: Percent Control(%)
T36 construct: purchased DiscoveRx KINOMEscan (Ambit Biosciences)

PAK4 = biological target: T37, PAK4 (Homo sapiens, UniProt O96013); assay: KINOMEscan kinase binding assay (Kd)
T37 construct: DNA tag (qPCR read-out); purchased Ambit Biosciences (KINOMEscan service)

Ramos = assay: MTT cell viability assay; conditions: Homo sapiens, 72 h
SU-DHL-6 = assay: MTT cell viability assay; conditions: Homo sapiens, SU-DHL-6, 72 h
WM2664 = assay: MTT cell viability assay; conditions: Homo sapiens, WM 266-4, 72 h
FLT3-D835Y = FLT3-D835Y (Homo sapiens, UniProt P36888, D835Y); assay: KINOMEscan panel screen; format: binding; set-up: purchased DiscoveRx KINOMEscan (Ambit Biosciences); conditions: read-out: Percent Control(%)

T23 sequence (Q13177 whole entry): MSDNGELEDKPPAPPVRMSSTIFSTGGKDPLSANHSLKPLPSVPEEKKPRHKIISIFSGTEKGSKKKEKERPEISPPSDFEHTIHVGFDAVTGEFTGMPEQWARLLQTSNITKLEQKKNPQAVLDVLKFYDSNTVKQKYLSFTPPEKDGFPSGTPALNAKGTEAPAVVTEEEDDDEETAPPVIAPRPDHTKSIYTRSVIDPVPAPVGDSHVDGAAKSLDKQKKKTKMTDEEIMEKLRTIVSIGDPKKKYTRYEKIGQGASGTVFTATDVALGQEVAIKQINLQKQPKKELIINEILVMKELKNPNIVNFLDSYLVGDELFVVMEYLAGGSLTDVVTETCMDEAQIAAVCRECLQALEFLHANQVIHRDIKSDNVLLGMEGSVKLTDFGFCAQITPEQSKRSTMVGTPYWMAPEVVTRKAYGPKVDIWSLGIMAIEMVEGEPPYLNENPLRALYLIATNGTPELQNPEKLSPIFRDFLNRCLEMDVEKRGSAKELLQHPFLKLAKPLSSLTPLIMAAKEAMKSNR
T33 sequence (P42681 whole entry): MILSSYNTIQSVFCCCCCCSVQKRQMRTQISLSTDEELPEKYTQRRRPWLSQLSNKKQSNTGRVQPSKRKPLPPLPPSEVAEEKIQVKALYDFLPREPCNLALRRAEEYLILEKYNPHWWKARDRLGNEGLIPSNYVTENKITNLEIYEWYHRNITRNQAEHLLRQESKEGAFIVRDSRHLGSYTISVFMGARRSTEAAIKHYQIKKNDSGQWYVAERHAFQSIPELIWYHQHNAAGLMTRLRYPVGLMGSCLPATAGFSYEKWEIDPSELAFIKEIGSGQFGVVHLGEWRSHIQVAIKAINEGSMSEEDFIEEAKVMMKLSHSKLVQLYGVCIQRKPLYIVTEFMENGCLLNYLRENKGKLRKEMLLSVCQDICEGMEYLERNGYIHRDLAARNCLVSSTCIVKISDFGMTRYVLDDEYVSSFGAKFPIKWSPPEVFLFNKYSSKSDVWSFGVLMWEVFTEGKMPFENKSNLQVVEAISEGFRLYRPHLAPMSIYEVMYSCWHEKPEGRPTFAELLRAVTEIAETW
T20 sequence (Q9Y2H1 whole entry): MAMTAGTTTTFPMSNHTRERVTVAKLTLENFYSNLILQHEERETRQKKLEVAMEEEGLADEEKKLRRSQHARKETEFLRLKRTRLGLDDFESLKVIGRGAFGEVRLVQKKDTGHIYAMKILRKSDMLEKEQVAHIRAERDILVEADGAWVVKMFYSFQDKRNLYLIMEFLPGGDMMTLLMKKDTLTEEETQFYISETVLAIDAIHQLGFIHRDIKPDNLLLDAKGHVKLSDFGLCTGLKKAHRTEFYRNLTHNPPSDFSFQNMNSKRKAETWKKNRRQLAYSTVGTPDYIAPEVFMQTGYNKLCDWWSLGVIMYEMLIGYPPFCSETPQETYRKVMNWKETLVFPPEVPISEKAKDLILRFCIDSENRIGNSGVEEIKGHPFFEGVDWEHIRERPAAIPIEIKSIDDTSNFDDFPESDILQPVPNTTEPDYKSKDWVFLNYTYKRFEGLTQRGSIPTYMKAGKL
T21 sequence (Q6ZWH5 whole entry): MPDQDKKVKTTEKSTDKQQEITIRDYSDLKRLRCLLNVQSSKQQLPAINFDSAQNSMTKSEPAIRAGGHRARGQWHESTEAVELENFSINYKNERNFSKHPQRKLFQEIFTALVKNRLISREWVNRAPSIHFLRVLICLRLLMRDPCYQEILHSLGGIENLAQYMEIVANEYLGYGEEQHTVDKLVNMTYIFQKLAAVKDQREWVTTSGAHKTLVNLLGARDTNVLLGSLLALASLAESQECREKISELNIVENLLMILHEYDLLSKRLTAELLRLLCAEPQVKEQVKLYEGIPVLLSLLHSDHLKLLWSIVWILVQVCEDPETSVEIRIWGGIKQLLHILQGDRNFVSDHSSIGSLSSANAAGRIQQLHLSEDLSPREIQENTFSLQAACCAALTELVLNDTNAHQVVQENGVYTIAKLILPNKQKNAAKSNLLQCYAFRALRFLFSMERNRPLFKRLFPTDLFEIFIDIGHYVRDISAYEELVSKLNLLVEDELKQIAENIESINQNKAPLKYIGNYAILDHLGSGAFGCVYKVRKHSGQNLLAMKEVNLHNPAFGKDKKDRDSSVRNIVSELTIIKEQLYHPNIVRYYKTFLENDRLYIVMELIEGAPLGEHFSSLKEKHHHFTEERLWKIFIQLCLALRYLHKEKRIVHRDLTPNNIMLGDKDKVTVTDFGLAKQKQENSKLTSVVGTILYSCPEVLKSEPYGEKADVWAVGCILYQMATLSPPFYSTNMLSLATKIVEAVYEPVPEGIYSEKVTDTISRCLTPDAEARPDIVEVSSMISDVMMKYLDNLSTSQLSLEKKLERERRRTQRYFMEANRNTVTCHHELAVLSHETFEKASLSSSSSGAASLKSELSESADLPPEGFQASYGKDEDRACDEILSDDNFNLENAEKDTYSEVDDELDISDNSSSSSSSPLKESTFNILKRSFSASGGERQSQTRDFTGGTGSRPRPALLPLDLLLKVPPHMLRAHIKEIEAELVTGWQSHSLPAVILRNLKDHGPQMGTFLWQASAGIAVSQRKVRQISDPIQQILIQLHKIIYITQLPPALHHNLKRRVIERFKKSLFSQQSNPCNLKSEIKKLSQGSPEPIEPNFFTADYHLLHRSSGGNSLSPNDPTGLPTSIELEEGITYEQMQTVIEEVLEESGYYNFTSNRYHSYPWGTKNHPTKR
T15 sequence (P53667 whole entry): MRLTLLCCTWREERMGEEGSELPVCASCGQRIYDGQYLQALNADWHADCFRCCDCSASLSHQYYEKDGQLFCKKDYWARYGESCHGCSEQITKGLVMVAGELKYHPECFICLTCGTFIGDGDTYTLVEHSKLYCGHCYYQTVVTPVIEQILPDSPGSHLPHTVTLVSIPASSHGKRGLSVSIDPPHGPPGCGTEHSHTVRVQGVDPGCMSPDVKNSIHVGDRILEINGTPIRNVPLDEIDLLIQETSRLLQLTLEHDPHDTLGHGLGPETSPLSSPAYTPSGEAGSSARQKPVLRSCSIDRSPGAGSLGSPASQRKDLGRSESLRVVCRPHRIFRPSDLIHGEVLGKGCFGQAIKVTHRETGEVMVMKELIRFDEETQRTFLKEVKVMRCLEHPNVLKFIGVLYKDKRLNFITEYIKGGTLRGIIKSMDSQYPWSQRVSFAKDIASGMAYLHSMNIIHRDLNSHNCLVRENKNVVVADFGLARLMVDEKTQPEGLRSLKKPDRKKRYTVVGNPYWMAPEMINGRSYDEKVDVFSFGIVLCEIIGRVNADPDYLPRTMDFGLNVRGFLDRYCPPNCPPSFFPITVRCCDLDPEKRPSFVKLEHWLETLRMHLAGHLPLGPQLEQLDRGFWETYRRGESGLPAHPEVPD
T5 sequence (Q8N752 whole entry): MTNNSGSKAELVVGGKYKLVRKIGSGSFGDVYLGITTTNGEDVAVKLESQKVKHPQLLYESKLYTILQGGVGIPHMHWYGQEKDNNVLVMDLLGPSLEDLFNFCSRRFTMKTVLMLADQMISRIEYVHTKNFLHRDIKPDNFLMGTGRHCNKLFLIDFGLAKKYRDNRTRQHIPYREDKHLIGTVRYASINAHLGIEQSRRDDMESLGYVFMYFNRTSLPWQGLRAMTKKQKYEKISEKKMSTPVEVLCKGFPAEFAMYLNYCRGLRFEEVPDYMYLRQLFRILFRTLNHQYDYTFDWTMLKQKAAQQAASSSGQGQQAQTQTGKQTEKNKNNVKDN
T6 sequence (Q9HCP0 whole entry): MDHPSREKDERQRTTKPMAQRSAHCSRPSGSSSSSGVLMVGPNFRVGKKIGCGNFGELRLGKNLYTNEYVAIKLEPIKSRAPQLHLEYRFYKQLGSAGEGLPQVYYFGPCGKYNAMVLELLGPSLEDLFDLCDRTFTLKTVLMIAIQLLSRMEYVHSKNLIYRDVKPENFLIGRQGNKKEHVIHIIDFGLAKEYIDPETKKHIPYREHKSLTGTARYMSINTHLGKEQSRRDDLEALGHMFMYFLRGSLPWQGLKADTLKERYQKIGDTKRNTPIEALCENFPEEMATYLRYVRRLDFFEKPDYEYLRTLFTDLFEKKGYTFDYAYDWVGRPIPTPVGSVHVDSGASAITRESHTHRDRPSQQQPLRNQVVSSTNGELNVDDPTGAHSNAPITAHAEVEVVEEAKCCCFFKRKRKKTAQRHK
T14 sequence (P23458 854-1154 limits assumed): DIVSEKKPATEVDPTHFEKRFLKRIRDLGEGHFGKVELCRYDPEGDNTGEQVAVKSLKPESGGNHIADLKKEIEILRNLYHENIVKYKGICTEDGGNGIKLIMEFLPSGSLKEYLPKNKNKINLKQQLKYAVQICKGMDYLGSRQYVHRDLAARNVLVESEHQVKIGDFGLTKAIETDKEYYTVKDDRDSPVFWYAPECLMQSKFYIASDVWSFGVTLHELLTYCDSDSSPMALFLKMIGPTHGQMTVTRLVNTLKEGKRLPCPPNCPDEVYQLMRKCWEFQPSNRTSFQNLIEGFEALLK
T13 sequence (Q08881 whole entry): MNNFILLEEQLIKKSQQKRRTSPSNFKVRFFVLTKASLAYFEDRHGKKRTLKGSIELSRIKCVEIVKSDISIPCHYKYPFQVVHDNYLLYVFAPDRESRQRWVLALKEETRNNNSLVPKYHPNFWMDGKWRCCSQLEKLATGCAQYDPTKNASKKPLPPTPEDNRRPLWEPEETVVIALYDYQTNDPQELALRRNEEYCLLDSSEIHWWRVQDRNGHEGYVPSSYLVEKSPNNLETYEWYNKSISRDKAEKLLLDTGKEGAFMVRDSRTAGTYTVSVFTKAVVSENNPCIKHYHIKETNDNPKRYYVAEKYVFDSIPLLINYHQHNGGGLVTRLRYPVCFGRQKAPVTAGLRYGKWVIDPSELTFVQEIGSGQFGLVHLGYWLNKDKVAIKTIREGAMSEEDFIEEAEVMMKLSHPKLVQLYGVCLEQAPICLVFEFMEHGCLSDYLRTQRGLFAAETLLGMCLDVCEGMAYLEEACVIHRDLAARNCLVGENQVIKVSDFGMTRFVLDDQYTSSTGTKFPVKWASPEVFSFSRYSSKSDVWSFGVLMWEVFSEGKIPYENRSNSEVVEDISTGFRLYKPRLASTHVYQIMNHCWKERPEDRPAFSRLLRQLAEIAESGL

## CC(C)(C)c1cc(NC(=O)Nc2ccc(Oc3ncnc4[nH]ncc34)c(F)c2)no1 [SKLB-677, 1-(4-(1H-pyrazolo[3,4-d]pyrimidin-4-yloxy)-3-fluorophenyl)-3-(5-tert-butylisoxazol-3-yl)urea]
AAK1
  remaining binding at 10 µM: 72%
ABL1-phosphorylated
  remaining binding at 10 µM: 3.2%
BLK
  remaining binding at 10 µM: 0.95%
CLK2
  remaining binding at 10 µM: 6.4%
CSNK1A1L
  remaining binding at 10 µM: 68%
CSNK1G1
  remaining binding at 10 µM: 86%
CSNK2A1
  remaining binding at 10 µM: 100%
DYRK1B
  remaining binding at 10 µM: 41%
EPHA4
  remaining binding at 10 µM: 4.8%
EPHB6
  remaining binding at 10 µM: 2%
GCN2(Kin.Dom.2,S808G)
  remaining binding at 10 µM: 20%
GSK3A
  remaining binding at 10 µM: 30%
ITK
  remaining binding at 10 µM: 36%
[1]
  remaining binding at 10 µM: 12%
LIMK1
  remaining binding at 10 µM: 25%
LIMK2
  remaining binding at 10 µM: 7%
MET
  remaining binding at 10 µM: 0.05%
MLCK
  remaining binding at 10 µM: 58%
MST3
  remaining binding at 10 µM: 46%
NDR2
  remaining binding at 10 µM: 56%
NEK10
  remaining binding at 10 µM: 93%
NEK3
  remaining binding at 10 µM: 41%
PAK2
  remaining binding at 10 µM: 79%
PDGFRB
  remaining binding at 10 µM: 0%
PIK3CA(E545A)
  remaining binding at 10 µM: 86%
PKAC-alpha
  remaining binding at 10 µM: 31%
RIOK1
  remaining binding at 10 µM: 89%
RIPK5
  remaining binding at 10 µM: 98%
[2]
  remaining binding at 10 µM: 19%
SGK
  remaining binding at 10 µM: 29%
SgK110
  remaining binding at 10 µM: 100%
TAK1
  remaining binding at 10 µM: 100%
TXK
  remaining binding at 10 µM: 88%
ULK1
  remaining binding at 10 µM: 70%
WEE1
  remaining binding at 10 µM: 64%
ZAK
  remaining binding at 10 µM: 1.5%
PAK4
  Kd: > 10 µM
Ramos
  IC50: 8.4 µM
SU-DHL-6
  IC50: 7.78 µM
WM2664
  IC50: > 10 µM
FLT3-D835Y
  remaining binding at 10 µM: 3.2%
